Test results taken from patent US6166033A, “2-carbonylthiazole derivatives and use of the same” (priority 1996, dated 2000).
Structures can show the parent of a compound that is named as a salt.

Legend:
Dopamine D2 receptor = Dopamine D2 receptor (Rattus norvegicus, UniProt P61169); assay: Dopamine D2 receptor binding test ([3H] raclopride); settings: rat striate body membrane; [3H] raclopride 1 nM; 1 hour at 25° C.
human D4.2 receptor = target: T1, human D4.2 receptor (Homo sapiens, UniProt P21917, DEL265-296); assay: Dopamine D4 receptor binding test ([3H] spiperone); settings: human D4.2 receptor in CHO cell membrane; [3H] spiperone 0.5 nM; 2 hours at 27° C., pH 7.4
T1 construct: expressed in transfected cells; host or cells: Chinese hamster ovary (CHO) cells, membranes
T1 sequence (P21917 with tags, fused parts or gaps DEL265-296): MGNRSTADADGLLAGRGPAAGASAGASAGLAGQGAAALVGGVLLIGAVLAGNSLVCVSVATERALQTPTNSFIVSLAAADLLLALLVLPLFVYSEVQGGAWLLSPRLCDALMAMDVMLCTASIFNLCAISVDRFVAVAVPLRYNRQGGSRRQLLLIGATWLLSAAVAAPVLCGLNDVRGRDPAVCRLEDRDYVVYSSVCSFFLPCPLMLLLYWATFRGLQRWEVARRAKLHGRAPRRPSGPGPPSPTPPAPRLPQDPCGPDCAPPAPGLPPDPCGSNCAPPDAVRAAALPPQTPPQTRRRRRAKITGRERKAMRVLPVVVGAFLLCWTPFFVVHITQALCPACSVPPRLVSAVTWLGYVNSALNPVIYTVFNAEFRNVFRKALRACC
Method: 1. Dopamine D4 receptor binding test
Chinese hamster ovary (CHO) cell membrane, in which human D4.2 receptor was expressed, was used as a receptor sample.
[^3 H] Spiperone was used as a [^3 H]-labeled ligand.
The binding reaction using the [^3 H]-labeled ligand was carried out by the following method described in Eur. J. Pharmacol., 233, 173 (1993).
Human D4.2 receptor binding test: The CHO cell membrane, in which human D4.2 receptor has been expressed, [^3 H] spiperone (0.5 nM) and each test compound were allowed to undergo 2 hours of reaction at 27° C. in 50 mM Tris-HCl buffer (pH 7.4) containing 5 mM EDTA, 1.5 mM CaCl2, 5 mM KCl and 120 mM NaCl.
After completion of the reaction, the reaction solution was filtered by suction through a glass filter (GF/B), and radioactivity on the filter paper was measured using a liquid scintillation spectrometer.
The binding when the reaction was carried out in the presence of 10 μM haloperidol was defined as non-specific binding of [^3 H] spiperone, and the difference between total binding and non-specific binding was defined as specific binding. An inhibition curve was obtained by allowing a fixed concentration of [^3 H] spiperone to react with varied concentration of each compound to be tested under the aforementioned conditions, and the concentration of each test compound which inhibits 50% of the [^3 H] spiperone binding (IC50) was calculated from the inhibition curve, with the results shown in Table 3.

[1] = literature; cited from earlier work
schizophrenia = settings: clinical, literature, cited from earlier work
dopamine D4 receptor = settings: literature; cited from earlier work

Sequence of Dopamine D2 receptor (P61169 whole entry): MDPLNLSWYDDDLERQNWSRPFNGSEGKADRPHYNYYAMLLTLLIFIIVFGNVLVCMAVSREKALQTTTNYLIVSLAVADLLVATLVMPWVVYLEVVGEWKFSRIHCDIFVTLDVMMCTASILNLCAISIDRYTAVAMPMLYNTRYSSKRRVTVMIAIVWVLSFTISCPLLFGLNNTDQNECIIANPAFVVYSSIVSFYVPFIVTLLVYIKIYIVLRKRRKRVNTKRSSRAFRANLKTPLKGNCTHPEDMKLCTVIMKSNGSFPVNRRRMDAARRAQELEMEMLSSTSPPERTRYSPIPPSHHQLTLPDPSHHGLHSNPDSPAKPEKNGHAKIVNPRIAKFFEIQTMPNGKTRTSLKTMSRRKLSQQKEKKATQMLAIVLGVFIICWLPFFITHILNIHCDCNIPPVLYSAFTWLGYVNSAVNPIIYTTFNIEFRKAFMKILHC

IC50 (Dopamine D2 receptor) [nM]	IC50 (human D4.2 receptor) [nM]	Compound	hemotoxicity [1]	efficacy in schizophrenia (schizophrenia)	extrapyramidal disorders (schizophrenia; unlike dopamine D2 receptor antagonists)	affinity for dopamine D4 receptor relative to dopamine D2 receptor (dopamine D4 receptor)
628	5.99	NC(=O)c1nc(-c2ccccc2)c(CCN2CCC(=Cc3ccc(F)cc3)CC2)s1 [Compound A-17]	–	–	–	–
> 1000	13.9	CCOC(=O)c1nc(-c2ccc(F)cc2)c(CCN2CCC(=Cc3cccc(F)c3)CC2)s1 [Compound A-09, 2-ethoxycarbonyl-4-(4-fluorophenyl)-5-[2-[4-(3-fluorobenzylidene)piperidin-1-yl]ethyl]thiazole hydrochloride]	–	–	–	–
> 1000	3.43	CCOC(=O)c1nc(-c2ccc(F)cc2)c(CCN2CCC(C(=O)c3ccc(F)cc3)CC2)s1 [Compound A-21]	–	–	–	–
–	–	CN1CCN(C2=Nc3cc(Cl)ccc3Nc3ccccc32)CC1 [Clozapine]	generates a hemotoxin as agranulocytosis which resulted in certain mortal cases	effective in drug-resistant schizophrenia and negative symptoms	causes less extrapyramidal disorders	higher than its affinity for dopamine D2 receptor
≥ 1000	10.5	O=C(O)c1nc(-c2ccc(F)cc2)c(CCN2CCC(=Cc3cccc(F)c3)CC2)s1 [Compound A-11, 2-carboxylic acid-4-(4-fluorophenyl)-5-[2-[4-(3-fluorobenzylidene)piperidin-1-yl]ethyl]thiazole potassium salt]	–	–	–	–
72.2	3.13	NC(=O)c1nc(-c2ccc(F)cc2)c(CCN2CCC(C(=O)c3ccc(F)cc3)CC2)s1 [Compound A-22]	–	–	–	–
143	3.13	NC(=O)c1nc(-c2ccc(F)cc2)c(CCN2CCC(=Cc3ccccc3)CC2)s1 [Compound A-13]	–	–	–	–
433	18.3	Cc1ccc(C=C2CCN(CCc3sc(C(N)=O)nc3-c3ccc(F)cc3)CC2)cc1 [Compound A-15]	–	–	–	–
≥ 1000	5.46	NC(=O)c1nc(-c2ccc(F)cc2)c(CCN2CCC(=Cc3ccc(F)cc3)CC2)s1 [Compound A-02]	–	–	–	–
187	9.55	Cc1ccc(-c2nc(C(N)=O)sc2CCN2CCC(=Cc3ccc(F)cc3)CC2)cc1 [Compound A-20]	–	–	–	–
559	4.53	NC(=O)c1nc(-c2ccc(F)cc2)c(CCN2CCC(=Cc3cccc(F)c3)CC2)s1 [Compound A-10, 2-carbamoyl-4-(4-fluorophenyl)-5-[2-[4-(3-fluorobenzylidene)piperidin-1-yl]ethyl]thiazole]	–	–	–	–
